Patent US10285984B2, “Methods and compositions for improving gut microbiota population” (SHANGHAI JIAO TONG UNIVERSITY, priority 2012, dated 2019)

Columns and labels:
Assay type in all cases: in vivo, Wistar rats
[1] = Systemic inflammation level in rats: serum LBP, MCP-1, leptin, adiponectin
Source text: (§1) These examples use Wistar rats (8 weeks old, male) as testing subjects and berberine as a representative compound. 40 Wistar rats were acclimatized for two weeks and were subsequently randomly divided into four groups: normal diet group (NCD), normal diet plus berberine treatment (NCD+BBR), high fat diet (HFD), and high fat diet plus berberine treatment (HFD+BBR). Each group continued for another 18 weeks. During these 18 weeks, the NCD+BBR group received intragastric administration of berberine at stated levels. Feces samples from each animal were collected at various time points. 454 pyrosequencing was performed to analyze gut microbiota structure. Gas chromatography was used to assay the short-chain fatty acid level of the feces. In addition, weight, food intake, insulin sensitivity, systemic inflammation levels were monitored and measured during the 18-week period.
In order to evaluate the systemic inflammation levels of all four experimental groups of rats, the serum levels of lipopolysaccharide (LPS)-binding protein (LBP), monocyte chemoattractant protein-1 (MCP-1), leptin, and adiponectin were measured, and results are shown in FIG. 6.
MCP-1 is a pro-inflammatory cytokine that functions in chemotaxis and activation of monocytes/macrophages. Occurrence and development of many inflammation-related diseases are closely related to MCP-1, including atherosclerosis, obesity, type 2 diabetes, arthritis, sepsis, and chronic bacterial infection.
Leptin is a hormone secreted by adipose tissue, and broadly participates in lipid, glucose, and energy metabolism.
The adiponectin levels in all four groups were analyzed. […] Therefore, berberine improves gut microbiota population, reduces LPB, MCP-1, and lpetin level, and increases adiponectin secretion. TABLE 1 16S rRNA gene V3 region sequence of those bacteria enriched by berberine.

[2] = test system: gut short-chain fatty acid; experiment: Short-chain fatty acid level in rat feces by gas chromatography; details: oral 100 mg/kg body weight, FIG. 3
Source text: as §1, with “period. The levels of short-chain fatty acid (including acetic acid, propionic acid, butyric acid, valeric acid, isobutyric acid, isovaleric acid, etc.) in rat feces were assayed by gas chromatography. […] Therefore, berberine is capable of increasing gut short-chain fatty acid level in rats fed normal diet or high fat diet.” for “period.”

[3] = test system: gut microbiota; experiment: Gut microbiota structure in rat feces by 454 pyrosequencing and multivariate statistics (PCoA, MANOVA, RDA, Shannon-Wiener index)
Source text: as §1
The gut microbiota populations in rats from all four experimental groups were analyzed by 454 pyrosequencing and multivariate statistical analyses. […] Diet also exerted statistically significant influence on gut microbiota population.
268 berberine-related OTU were identified by redundancy analysis (RDA) and the detailed results are shown in FIG. 2, TABLE 1, and TABLE 2. 93 OTU (SEQ_ID_NO 1-93) (TABLE 1) are enriched by berberine, while 175 OTU (SEQ_ID_NO 94-268) (TABLE 2) were suppressed or eliminated.
The taxonomy of these 268 OTU was analyzed using RDP classifier with representative sequence of the OTU. […] Among them, Blautia, Allobaculum, Prevotella, Bacteroides, and Butyricimonas are relatively abundant and are capable of producing short-chain fatty acid.

[4] = Insulin sensitivity in rats: FBG, FINS, HOMA-IR, oral glucose tolerance test, intraperitoneal insulin tolerance test
Source text: as §1, with “period. The fasting blood glucose (FBG) and fasting insulin in serum (FINS) were measured for all four experimental groups of rats. […] In order to further examine insulin sensitivity, oral glucose tolerance test and intraperitoneal injection of insulin tolerance test were conducted, and the results are shown in FIG. 5D, and 5E, respectively.” for “period.”

[5] = Obesity phenotype of rats fed normal or high fat diet: body weight, adiposity index, food intake, liver and pancreas
Source text: as §1, with “period. The body weight of all four groups of rats were monitored during the duration of the experiments and analyzed. […] At the end of experiment, animals were euthanized. Fasting body weight, epididymal fat weight, and perirenal fat weight were measured.” for “period.”

COc1ccc2cc3[n+](cc2c1OC)CCc1cc2c(cc1-3)OCO2 [berberine]
serum lipopolysaccharide (LPS)-binding protein (LBP) ([1]; 100 mg/kg, HFD, P<0.05, FIG. 6A): significantly abrogated the increase of serum LBP
serum MCP-1 level ([1]; HFD rats, FIG. 6B): significantly reduced
serum MCP-1 level versus NCD group ([1]; HFD+BBR versus NCD): even lower than that of NCD group
serum leptin level ([1]; especially rats fed a HFD, P<0.05, FIG. 6C): significantly reduced the serum leptin level
adiponectin level normalized against body fat weight ([1]; rats fed a HFD, P<0.01, FIG. 6D): significantly increased adiponectin level
effect on levels of acetic acid and propionic acid in feces [2]: especially pronounced
level of gut short-chain fatty acid in feces ([2]; rats fed normal diet or high fat diet): may increase the level of gut short-chain fatty acid
number of berberine-related OTU identified (RDA) ([3]; FIG. 2): 268 OTU
share of overall changes in the gut microbiota population accounted for (PCoA, unweighted Unifrac distance) ([3]; NCD and HFD rats, FIG. 1A): 12.6%
diversity of gut microbiota population (Shannon-Wiener index) ([3]; P<0.05, FIG. 1C): reduces diversity of gut microbiota population at a statistically significant level
number of OTU enriched (RDA) ([3]; SEQ_ID_NO 1-93, TABLE 1): 93 OTU
number of OTU suppressed or eliminated (RDA) ([3]; SEQ_ID_NO 94-268, TABLE 2): 175 OTU
effect on gut microbiota structure (PCoA) ([3]; normal diet group and high fat diet group): altered gut microbiota structure in both the normal diet group and high fat diet group at a statistically significant level
oral glucose tolerance test ([4]; 100 mg/kg body weight, 18 weeks HFD, FIG. 5D): significantly prevented the loss of glucose tolerance
intraperitoneal injection of insulin tolerance test ([4]; 100 mg/kg body weight, 18 weeks HFD, FIG. 5E): significantly prevented the loss of glucose tolerance and insulin tolerance
fasting insulin in serum (FINS) ([4]; 100 mg/kg body weight, HFD+BBR, FIG. 5B): significantly reduced
HOMA insulin resistance index ([4]; 100 mg/kg body weight, HFD, P<0.05, FIG. 5C): prevented the formation of insulin resistance
fasting blood glucose (FBG) reduction ([4]; HFD rats, P<0.05, FIG. 5A): significant
fasting blood glucose (FBG) ([4]; NCD and HFD rats, FIG. 5A): effectively reduced FBG
body weight of HFD+BBR group versus normal diet group ([5]; 100 mg/kg, entire experiment, P>0.05): no statistically significant difference
effect on liver and pancreas / side effect of long term use ([5]; 18 weeks): no obvious side effect
adiposity index ([epididymal fat weight+perirenal fat]/fasting weight×100) ([5]; 18 weeks, HFD, FIG. 4B): significantly reduces adiposity index
body weight of rats fed a normal diet ([5]; NCD+BBR, FIG. 4): influences, to a certain degree
body weight growth ([5]; intragastric 100 mg/kg, 18 weeks, especially rats fed high fat diet, FIG. 4A): effectively limits rat body weight growth
food intake (calorie intake) ([5]; oral 100 mg/kg body weight, especially rats fed a high fat diet, FIG. 4C): significant inhibitory effect on rat food intake
